Test results: US12371454B2, “Cyclic peptide compound having Kras inhibitory action” (priority 2019, dated 2025)
Starred links: 1 amine or outer side, 2 acyl side, 3 side chain; linkers in the order of their positions; H or OH if unused. Positions of bridges follow the written chain, without caps; N, C: chain ends. Non-standard residues stand in square brackets, D forms with d. Residues, ends and D or L forms follow the SMILES beside them. *: point of attachment. hPhe(3,5-F2-4-CF3) = N[C@@H](CCc1cc(F)c(C(F)(F)F)c(F)c1)C(=O)O; hPhe(3-Cl-4-CF3) = N[C@@H](CCc1ccc(C(F)(F)F)c(Cl)c1)C(=O)O; hPhe(3-F,4-CF3) = N[C@@H](CCc1ccc(C(F)(F)F)c(F)c1)C(=O)O; X48 = O=C([C@H](CCc1ccc(S(F)(F)(F)(F)F)cc1)N[*:1])[*:2]; hPhe(4-CF3) = N[C@@H](CCc1ccc(C(F)(F)F)cc1)C(=O)O; NMeAbu(4,4,4-F3) = CN[C@@H](CC(F)(F)F)C(=O)O; NMePhe(4-Cl) = CN[C@@H](Cc1ccc(Cl)cc1)C(=O)O; X55 = C[C@@](Cc1cccc(I)c1)(N[*:1])C(=O)[*:2]; NMePhe(4-Me) = CN[C@@H](Cc1ccc(C)cc1)C(=O)O; NMePhe(2-Cl) = CN[C@@H](Cc1ccccc1Cl)C(=O)O; NMedβ3hAla = C[C@H](CC(=O)[*:2])N(C)[*:1]; NMePhe(2-F) = CN[C@@H](Cc1ccccc1F)C(=O)O; NMeGly(cPent) = CN[C@H](C(=O)O)C1CCCC1; Phe(3-I) = N[C@@H](Cc1cccc(I)c1)C(=O)O; Pro(4,4-F2) = O=C(O)[C@@H]1CC(F)(F)CN1; X10 = CC(C)=CC[C@H](N[*:1])C(=O)[*:2]; NMeCha = CN[C@@H](CC1CCCCC1)C(=O)O; NMeChg = CN[C@H](C(=O)O)C1CCCCC1; NMeF = CN[C@@H](Cc1ccccc1)C(=O)O; NMeI = CC[C@H](C)[C@H](NC)C(=O)O; NMeD = CN[C@@H](CC(=O)O)C(=O)O; NMeL = CN[C@@H](CC(C)C)C(=O)O; NMeNle = CCCC[C@H](NC)C(=O)O; NMeV = CN[C@H](C(=O)O)C(C)C; d(β3hA) = C[C@@H](N)CC(=O)O; NMeS = CN[C@@H](CO)C(=O)O; Morpholide = C1CN(*)CCO1; NMeA = CN[C@@H](C)C(=O)O; NMeAib = CNC(C)(C)C(=O)O; Nle = CCCC[C@H](N)C(=O)O; Piperidide = C1CCN(*)CC1; Pyrrolidide = C1CCN(*)C1; dNMeA = CN[C@H](C)C(=O)O; Ac5c = NC1(C(=O)O)CCCC1; Aze = O=C(O)[C@@H]1CCN1; Ac4c = NC1(C(=O)O)CCC1; Sar = CNCC(=O)O; Propyl = CCC*

The compounds below were run against T1, Kras and SOS1 (biotin-tagged human Kras loaded with GDP, His-tagged human SOS1) (Homo sapiens, UniProt P01116, G12D) (assay: Protein-protein interaction inhibition between Kras and SOS1 (KrasGl2D-SOS PPI) using AlphaScreen). Settings: AlphaScreen; biotin-tagged human Kras loaded with GDP, His-tagged human SOS1; read-out: KRAS G12D-SOS PPI IC50.
T1 construct: made in house; host or cells: E. coli (stated for Kras only)
T1 sequence (P01116 1-188 isoform P01116-2 G12D): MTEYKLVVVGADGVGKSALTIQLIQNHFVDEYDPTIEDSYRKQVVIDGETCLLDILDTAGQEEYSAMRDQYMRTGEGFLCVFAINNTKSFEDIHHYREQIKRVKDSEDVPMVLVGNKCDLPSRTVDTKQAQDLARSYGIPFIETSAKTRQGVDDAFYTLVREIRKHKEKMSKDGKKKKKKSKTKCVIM
Type: binding
In short: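 Binding between SOS1 and Kras is detected as bead-proximity luminescence: illuminate Ni-conjugated donors (680 nm), collect 520-620 nm emission from streptavidin-conjugated acceptors; Kras carries biotin and GDP loaded after purification, SOS1 carries a His tag.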

Compound | IC50 [nM]
CC[C@H](C)[C@@H]1NC(=O)[C@H](CC(C)C)N(C)C(=O)C[C@@H](C(=O)N2CCCC2)N(C)C(=O)[C@H](C2CCCC2)N(C)C(=O)C2(CCCC2)NC(=O)[C@@H]2CC(F)(F)CN2C(=O)[C@H](CCc2ccc(C(F)(F)F)c(Cl)c2)NC(=O)CN(C)C(=O)[C@H](CC2CCCCC2)N(C)C(=O)CN(C)C(=O)CN(C)C1=O [Compound 1270] ([NMeL]I[Sar][Sar][NMeCha][Sar][hPhe(3-Cl-4-CF3)][Pro(4,4-F2)][Ac5c][NMeGly(cPent)][NMeD]-Pyrrolidide; lactam N-11) | 0.61
CC[C@H](C)[C@@H]1NC(=O)[C@H](C)NC(=O)C[C@@H](C(=O)N2CCCC2)NC(=O)[C@H](CC(C)C)N(C)C(=O)[C@H](Cc2ccccc2)N(C)C(=O)[C@H](CC(C)C)NC(=O)[C@H](CCc2ccc(C(F)(F)F)cc2)NC(=O)CN(C)C(=O)[C@H](Cc2ccc(Cl)cc2)N(C)C(=O)CN(C)C(=O)CN(C)C1=O [Compound 989] (AI[Sar][Sar][NMePhe(4-Cl)][Sar][hPhe(4-CF3)]L[NMeF][NMeL]D-Pyrrolidide; lactam N-11) | 34
CC[C@H](C)[C@@H]1NC(=O)[C@H](C)N(C)C(=O)C[C@@H](C)NC(=O)[C@H](C2CCCC2)N(C)C(=O)C2(CCCC2)NC(=O)[C@@H]2CCCN2C(=O)[C@H](CCc2ccc(C(F)(F)F)c(Cl)c2)NC(=O)[C@@H](C)N(C)C(=O)[C@H](Cc2ccccc2F)N(C)C(=O)[C@@H]2CCN2C(=O)[C@H](C)N(C)C1=O [Compound 990] (cyclo([Ac5c][NMeGly(cPent)][d(β3hA)][NMeA]I[NMeA][Aze][NMePhe(2-F)][dNMeA][hPhe(3-Cl-4-CF3)]P)) | 83
CC(C)=CC[C@@H]1NC(=O)[C@H](CC(C)C)N(C)C(=O)C[C@@H](C(=O)N2CCCCC2)N(C)C(=O)[C@H](C2CCCCC2)N(C)C(=O)C2(CCCC2)NC(=O)[C@@H]2CCCN2C(=O)[C@H](CCc2ccc(C(F)(F)F)c(Cl)c2)NC(=O)CN(C)C(=O)[C@H](CC2CCCCC2)N(C)C(=O)CN(C)C(=O)CN(C)C1=O [Compound 1134] ([NMeL][X10][Sar][Sar][NMeCha][Sar][hPhe(3-Cl-4-CF3)]P[Ac5c][NMeChg][NMeD]-Piperidide; lactam N-11) | 6
CC[C@H](C)[C@@H]1NC(=O)[C@H](CC(C)C)N(C)C(=O)C[C@@H](C(=O)N(C)C)N(C)C(=O)[C@H](C2CCCC2)N(C)C(=O)C2(CCCC2)NC(=O)[C@H](Cc2ccccc2F)N(C)C(=O)[C@H](CCc2ccc(C(F)(F)F)c(Cl)c2)NC(=O)CN(C)C(=O)[C@H](CC2CCCCC2)N(C)C(=O)[C@@H]2CCN2C(=O)[C@H](C)N(C)C1=O [Compound 43] ([NMeL]I[NMeA][Aze][NMeCha][Sar][hPhe(3-Cl-4-CF3)][NMePhe(2-F)][Ac5c][NMeGly(cPent)][NMeD]-NMe2; lactam N-11) | 31
CC[C@H](C)[C@@H]1NC(=O)[C@H](C)N(C)C(=O)C[C@@H](C)NC(=O)[C@H](C2CCCC2)N(C)C(=O)C2(CCCC2)NC(=O)[C@@H]2CCCN2C(=O)[C@H](CCc2ccc(C(F)(F)F)c(Cl)c2)NC(=O)CN(C)C(=O)[C@H](Cc2ccccc2Cl)N(C)C(=O)[C@@H]2CCCN2C(=O)CN(C)C1=O [Compound 82] (cyclo([Ac5c][NMeGly(cPent)][d(β3hA)][NMeA]I[Sar]P[NMePhe(2-Cl)][Sar][hPhe(3-Cl-4-CF3)]P)) | 140
CC[C@H](C)[C@@H]1NC(=O)[C@H](CC(C)C)N(C)C(=O)C[C@@H](C)NC(=O)[C@H](CC(C)C)N(C)C(=O)C2(CCCC2)NC(=O)[C@@H]2CCCN2C(=O)[C@H](CCc2ccc(S(F)(F)(F)(F)F)cc2)NC(=O)CN(C)C(=O)[C@H](CC2CCCCC2)N(C)C(=O)CN(C)C(=O)CN(C)C1=O [Compound 1021] (cyclo([Ac5c][NMeL][d(β3hA)][NMeL]I[Sar][Sar][NMeCha][Sar][X48]P)) | 240
CCCC[C@@H]1NC(=O)[C@](C)(Cc2cccc(I)c2)NC(=O)CN(C)C(=O)[C@H](Cc2ccc(Cl)cc2)N(C)C(=O)CN(C)C(=O)CN(C)C(=O)[C@H]([C@@H](C)CC)NC(=O)[C@H](CC(C)C)N(C)C(=O)C[C@@H](C(=O)N2CCCCC2)N(C)C(=O)[C@H](CC(C)C)NC(=O)C(C)(C)N(C)C1=O [Compound 1202] ([NMeL]I[Sar][Sar][NMePhe(4-Cl)][Sar][X55][Nle][NMeAib]L[NMeD]-Piperidide; lactam N-11) | 240
CC[C@H](C)[C@@H]1NC(=O)[C@H](CC(C)C)N(C)C(=O)C[C@@H](C)N(C)C(=O)[C@H]([C@@H](C)CC)N(C)C(=O)C2(CCC2)NC(=O)[C@@H]2CC(F)(F)CN2C(=O)[C@H](CCc2ccc(C(F)(F)F)c(Cl)c2)NC(=O)CN(C)C(=O)[C@H](Cc2ccc(C)cc2)N(C)C(=O)CN(C)C(=O)CN(C)C1=O [Compound 869] (cyclo([Ac4c][NMeI][NMedβ3hAla][NMeL]I[Sar][Sar][NMePhe(4-Me)][Sar][hPhe(3-Cl-4-CF3)][Pro(4,4-F2)])) | 9.8
CC[C@H](C)[C@@H]1NC(=O)[C@H](CC(F)(F)F)N(C)C(=O)C[C@@H](C(=O)N2CCCC2)N(C)C(=O)[C@H](C2CCCCC2)N(C)C(=O)C2(CCCC2)NC(=O)[C@@H]2CC(F)(F)CN2C(=O)[C@H](CCc2cc(F)c(C(F)(F)F)c(F)c2)NC(=O)CN(C)C(=O)[C@H](CC2CCCCC2)N(C)C(=O)CN(C)C(=O)CN(C)C1=O [Compound 1281] ([NMeAbu(4,4,4-F3)]I[Sar][Sar][NMeCha][Sar][hPhe(3,5-F2-4-CF3)][Pro(4,4-F2)][Ac5c][NMeChg][NMeD]-Pyrrolidide; lactam N-11) | 0.42
CCCC[C@H]1C(=O)N[C@H](C)CC(=O)N(C)[C@@H](CC(C)C)C(=O)N[C@@H]([C@@H](C)CC)C(=O)N(C)CC(=O)N(C)CC(=O)N(C)[C@@H](CC2CCCCC2)C(=O)N(C)CC(=O)N[C@@H](CCc2ccc(C(F)(F)F)c(F)c2)C(=O)N2CCC[C@H]2C(=O)NC2(CCCC2)C(=O)N1C [Compound 1518] (cyclo([Ac5c][NMeNle][d(β3hA)][NMeL]I[Sar][Sar][NMeCha][Sar][hPhe(3-F,4-CF3)]P)) | 370
CC[C@H](C)[C@@H]1NC(=O)[C@H](C)N(C)C(=O)C[C@@H](C)NC(=O)[C@H](C(C)C)N(C)C(=O)C2(CCCC2)NC(=O)[C@@H]2CCCN2C(=O)[C@H](CCc2ccc(C(F)(F)F)c(Cl)c2)NC(=O)CN(C)C(=O)[C@H](Cc2ccccc2)N(C)C(=O)[C@@H]2CCCN2C(=O)CN(C)C1=O [Compound 1778] (cyclo([Ac5c][NMeV][d(β3hA)][NMeA]I[Sar]P[NMeF][Sar][hPhe(3-Cl-4-CF3)]P)) | 7.3
CC[C@H](C)[C@@H]1NC(=O)[C@H](C)N(C)C(=O)C[C@@H](C(=O)N2CCCC2)NC(=O)[C@H](CC(C)C)N(C)C(=O)[C@H](CC2CCCCC2)N(C)C(=O)[C@H](CC(C)C)NC(=O)[C@H](CCc2ccc(C(F)(F)F)cc2)NC(=O)CN(C)C(=O)[C@H](Cc2ccc(Cl)cc2)N(C)C(=O)CN(C)C(=O)CN(C)C1=O [Compound 536] ([NMeA]I[Sar][Sar][NMePhe(4-Cl)][Sar][hPhe(4-CF3)]L[NMeCha][NMeL]D-Pyrrolidide; lactam N-11) | 230
CC[C@H](C)[C@@H]1NC(=O)[C@H](CC(C)C)N(C)C(=O)C[C@@H](C)N(C)C(=O)[C@H](C2CCCC2)N(C)C(=O)C2(CCCC2)NC(=O)[C@@H]2CC(F)(F)CN2C(=O)[C@H](CCc2ccc(C(F)(F)F)c(Cl)c2)NC(=O)CN(C)C(=O)[C@H](CC2CCCCC2)N(C)C(=O)CN(C)C(=O)CN(C)C1=O [Compound 107] (cyclo([Ac5c][NMeGly(cPent)][NMedβ3hAla][NMeL]I[Sar][Sar][NMeCha][Sar][hPhe(3-Cl-4-CF3)][Pro(4,4-F2)])) | 4
CCCOC[C@H]1C(=O)N(C)[C@H](C(=O)N2CCCCC2)CC(=O)N(C)[C@@H](CC(C)C)C(=O)N[C@@H]([C@@H](C)CC)C(=O)N(C)CC(=O)N(C)CC(=O)N(C)[C@@H](CC2CCCCC2)C(=O)N(C)CC(=O)N[C@@H](CCc2ccc(C(F)(F)F)c(Cl)c2)C(=O)N2CCC[C@H]2C(=O)NC2(CCCC2)C(=O)N1C [Compound 1771] ([NMeL]I[Sar][Sar][NMeCha][Sar][hPhe(3-Cl-4-CF3)]P[Ac5c][NMeS](Propyl)[NMeD]-Piperidide; lactam N-11) | 78
CC[C@H](C)[C@@H]1NC(=O)[C@H](CC(C)C)N(C)C(=O)C[C@@H](C(=O)N2CCOCC2)NC(=O)[C@H]([C@@H](C)CC)N(C)C(=O)C2(CCCC2)NC(=O)[C@@H]2CCCN2C(=O)[C@H](CCc2ccc(C(F)(F)F)c(Cl)c2)NC(=O)CN(C)C(=O)[C@H](CC2CCCCC2)N(C)C(=O)CN(C)C(=O)CN(C)C1=O [Compound 1277] ([NMeL]I[Sar][Sar][NMeCha][Sar][hPhe(3-Cl-4-CF3)]P[Ac5c][NMeI]D-Morpholide; lactam N-11) | 6.7
CC[C@H](C)[C@@H]1NC(=O)[C@H](CC(C)C)N(C)C(=O)C[C@@H](C)NC(=O)[C@H](C2CCCCC2)N(C)C(=O)C2(CCCC2)NC(=O)[C@@H]2CCCN2C(=O)[C@H](CCc2ccc(C(F)(F)F)c(Cl)c2)NC(=O)CN(C)C(=O)[C@H](Cc2ccc(C)cc2)N(C)C(=O)CN(C)C(=O)CN(C)C1=O [Compound 1856] (cyclo([Ac5c][NMeChg][d(β3hA)][NMeL]I[Sar][Sar][NMePhe(4-Me)][Sar][hPhe(3-Cl-4-CF3)]P)) | 5.4
CC[C@H](C)[C@@H]1NC(=O)[C@H](CC(C)C)N(C)C(=O)C[C@@H](C(=O)N2CCCCC2)N(C)C(=O)[C@H](CC(C)C)NC(=O)C(C)(C)N(C)C(=O)[C@H](CC(C)C)NC(=O)[C@H](Cc2cccc(I)c2)NC(=O)CN(C)C(=O)[C@H](Cc2ccc(Cl)cc2)N(C)C(=O)CN(C)C(=O)CN(C)C1=O [Compound 295] ([NMeL]I[Sar][Sar][NMePhe(4-Cl)][Sar][Phe(3-I)]L[NMeAib]L[NMeD]-Piperidide; lactam N-11) | 68
